Measurements published in EP0497921B1, “METHOD FOR INHIBITING ENZYMATIC SYNTHESIS OF NUCLEIC ACIDS USING ISOPSORALENS” (ISAACS, Stephen T., priority 1989, dated 1991).

Assays:
PCR'd MACS 1555 = assay: Inhibition of PCR by non-psoralen compounds in the absence of light; format: biochemical; settings: 30 cycles
Source text: The compounds tested were the following: 1) ethidium bromide (a Phenanthridine, see Table 1), 2) xylene cylanol (an Organic Dye, see Table 1), 3) bromphenol blue (an Organic Dye, see Table 1), 4) coumarin and 5) methylene blue (a Phenazathionium Salt, see Table 1).
A separate experiment examined PCR inhibition with coumarin and methylene blue in the absence of light. The following concentrations of methylene blue were tried: 4.3 x 10^-2, 4.3 x 10^-3, 4.3 x 10^-4 and 4.3 x 10^-5 M. Concentrations of coumarin tried included: 7 x 10^-3, 7 x 10^-4, 7 x 10^-5 and 7 x 10^-6 M. Compound was added to PCR tube containing α-^32P-dCTP and target (1 µl […].; PCR'd MACS 1555 per assay-point). PCR was carried out for 30 x cycles. Samples were loaded onto a 12% / 8 M urea gel.

tRNA = assay: Photobinding to RNA; format: binding; settings: 100 µg/ml, irradiated 30 minutes; 1-10 µg treated tRNA spotted; no signal from unirradiated controls
Experimental: This example describes photobinding of ^3H-AMIP, ^3H-AMDMIP and BIOMIP to RNA. A tRNA stock was prepared at a concentration of 765 µg/ml in 1 x TE / 10 mM NaCl. Appropriate amounts of each compound were prepared in separate reaction vessels such that upon addition of 200 µl of the tRNA solution (153 µg) the final concentration of each compound was 100 µg/ml. ^3H-AMIP and […] in the experiment; the BIOMIP used was unlabelled. Each reaction vessel was then irradiated for 30 minutes at 25 °C in the CE-III device. Identical unirradiated reaction mixtures were used as controls for each compound. Following irradiation, each mixture was extracted with CHCl3 (4 x 200 µl) then precipitated (X2). The pellets were resuspended in 1 x TE and the binding levels determined as follows. For the two labelled compounds (^3H-AMDMIP and ^3H-AMIP), the nucleic acid concentration was determined optically and radioactivity measured by scintillation counting of aliquots of the stock solutions. Binding of the compounds was then calculated to be as follows:
To determine if binding of BIOMIP to tRNA has occurred, it was necessary to use a non-radioactive format which detected the biotin moiety on the compound. A commercial kit ("BluGene"; BRL) was used for this purpose. The kit instructions were followed for detection of both the control DNA (supplied with the kit) and BIOMIP treated tRNA. […]

Compound	inhibition of PCR in the absence of light (PCR'd MACS 1555)	binding to tRNA detected via biotin moiety (BluGene kit) (tRNA)
O=c1ccc2ccccc2o1 [Coumarin, coumarin]	did not inhibit PCR at any of the concentrations tested	
5-N-[N,N'-Dimethyl-(6-[biotinamido]-hexanoate) -1,6-hexanediamine])-methyl-isopsoralen [BIOMIP]		covalently bound to the tRNA
